Results as given in patent US8449896B2, “Pharmaceutical composition having improved solubility” (Daiichi Sankyo Company, Limited, priority 2009, dated 2013).

Test: solubility of compound I in aqueous solutions
Format: physicochemical

solubility in a neutral aqueous solution (neutral aqueous solution (e.g., a neutral buffer)): reduced solubility
solubility in a strongly acidic aqueous solution (strongly acidic aqueous solution): favorable solubility
SMILES: CN1CCc2nc(C(=O)N[C@@H]3C[C@@H](C(=O)N(C)C)CC[C@@H]3NC(=O)C(=O)Nc3ccc(Cl)cn3)sc2C1 [compound I, N^1-(5-chloropyridin-2-yl)-N^2-((1S,2R,4S)-4-[(dimethylamino)carbonyl]-2-{[(5-methyl-4,5,6,7-tetrahydrothiazolo[5,4-c]pyridin-2-yl)carbonyl]amino}cyclohexyl)ethanediamide]
